The source of these data is patent US20240270821A1, “GIP/GLP1/GCG TRI-RECEPTOR AGONISTS AND USES THEREOF” (priority 2023, published 2024).

Common to all, as to assay type: cell-based
Assay [1] addresses T1, hGLP-1R (Homo sapiens, UniProt P43220). As to the kind of experiment: Functional cAMP activity in the presence of 1% HSA. Conditions: read-out: cAMP Rel EC50, hGLP-1R.
The target of assay [2] is T1, hGLP-1R. The experiment in a line: Functional cAMP activation in the presence of 0.1% casein (no HSA). Conditions: read-out: Relative cAMP EC50, hGLP-1R.
For another assay, the target named is hGcgR (Homo sapiens, UniProt P47871). The assay is described as above. The settings on record: read-out: Relative cAMP EC50, hGcgR.
The target of assay [3] is T2, hGIPR (Homo sapiens, UniProt P48546).
T2 sequence (P48546 22-466): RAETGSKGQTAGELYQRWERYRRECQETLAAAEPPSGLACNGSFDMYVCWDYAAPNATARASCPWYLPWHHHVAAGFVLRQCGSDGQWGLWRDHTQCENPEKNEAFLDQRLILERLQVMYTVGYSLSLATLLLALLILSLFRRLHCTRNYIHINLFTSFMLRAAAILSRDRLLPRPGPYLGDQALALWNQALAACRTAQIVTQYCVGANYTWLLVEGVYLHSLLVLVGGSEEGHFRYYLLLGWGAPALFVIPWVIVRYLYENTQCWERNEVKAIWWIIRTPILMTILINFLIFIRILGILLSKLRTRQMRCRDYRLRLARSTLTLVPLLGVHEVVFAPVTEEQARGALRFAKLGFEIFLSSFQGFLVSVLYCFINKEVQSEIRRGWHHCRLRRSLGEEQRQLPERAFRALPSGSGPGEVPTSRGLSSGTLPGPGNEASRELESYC
As to the kind of experiment: Functional cAMP activity in the presence of 1% HSA. Conditions: read-out: cAMP Rel EC50, hGIPR.

Assay [4] addresses T2, hGIPR. As to the kind of experiment: Functional cAMP activation in the presence of 0.1% casein (no HSA). The settings on record: read-out: Relative cAMP EC50, hGIPR.
For another assay, the target named is human GcgR (Homo sapiens, UniProt P47871). As to the kind of experiment: Functional cAMP activity in the presence of 1% HSA. The settings on record: read-out: cAMP Rel EC50, hGcgR.
The mark [5] stands for this setting: in the presence of 0.1% casein (no HSA), geometric mean.
Where [6] appears, read: 0.1% casein, no HSA, geometric mean.

Where two headings read alike, the source gives them in different places. Starred links: 1 amine or outer side, 2 acyl side, 3 side chain; linkers in the order of their positions; H or OH if unused. Non-standard residues stand in square brackets, D forms with d. Residues, ends and D or L forms follow the SMILES beside them. Groups on a side chain read outwards from the residue. No end group written: not given here. *: point of attachment. C20 diacid = O=C(O)CCCCCCCCCCCCCCCCCCC(=O)*; C18 diacid = O=C(O)CCCCCCCCCCCCCCCCC(=O)*; αMePhe(2-F) = C[C@](N)(Cc1ccccc1F)C(=O)O; γGlu = O=C(O)[C@H](CCC(=O)[*:2])N[*:1]; αMe4Pal = C[C@](N)(Cc1ccncc1)C(=O)O; αMeY = C[C@](N)(Cc1ccc(O)cc1)C(=O)O; 4Pal = N[C@@H](Cc1ccncc1)C(=O)O; αMeL = CC(C)C[C@](C)(N)C(=O)O; αMeS = C[C@](N)(CO)C(=O)O; Iva = CC[C@](C)(N)C(=O)O; Orn = NCCC[C@H](N)C(=O)O; AEEA = NCCOCCOCC(=O)O; Aib = CC(C)(N)C(=O)O
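Throughout, for Relative cAMP EC50, hGIPR: intracellular cAMP rise after 30 min at 37 °C read by HTRF against a standard curve, scaled between buffer alone (0%) and top control ligand concentration (100%), four-parameter fit.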
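Throughout, for Relative cAMP EC50, hGLP-1R: intracellular cAMP rise after 30 min at 37 °C read by HTRF, normalized between buffer only (0%) and maximal control ligand (100%), four-parameter variable-slope fit.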
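Throughout, for Relative cAMP EC50, hGcgR: intracellular cAMP rise after 30 min at 37 °C, read by HTRF against a cAMP standard curve, scaled from buffer only (0%) to maximal control ligand response (100%).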

Chain of hGcgR (P47871 26-477): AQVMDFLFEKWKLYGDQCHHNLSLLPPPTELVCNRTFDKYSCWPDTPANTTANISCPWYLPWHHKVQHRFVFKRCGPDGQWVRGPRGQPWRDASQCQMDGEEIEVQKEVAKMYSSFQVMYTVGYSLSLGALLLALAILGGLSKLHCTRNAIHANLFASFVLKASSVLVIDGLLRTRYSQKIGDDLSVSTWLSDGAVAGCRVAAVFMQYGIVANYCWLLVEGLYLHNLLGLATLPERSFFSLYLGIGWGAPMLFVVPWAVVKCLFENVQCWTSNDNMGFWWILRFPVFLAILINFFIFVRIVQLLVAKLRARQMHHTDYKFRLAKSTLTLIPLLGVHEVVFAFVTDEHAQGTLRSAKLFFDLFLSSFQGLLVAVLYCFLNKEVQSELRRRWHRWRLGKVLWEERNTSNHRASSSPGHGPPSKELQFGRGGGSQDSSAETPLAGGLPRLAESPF
Chain of human GcgR (P47871 26-477): as above
T1 sequence (P43220 24-463): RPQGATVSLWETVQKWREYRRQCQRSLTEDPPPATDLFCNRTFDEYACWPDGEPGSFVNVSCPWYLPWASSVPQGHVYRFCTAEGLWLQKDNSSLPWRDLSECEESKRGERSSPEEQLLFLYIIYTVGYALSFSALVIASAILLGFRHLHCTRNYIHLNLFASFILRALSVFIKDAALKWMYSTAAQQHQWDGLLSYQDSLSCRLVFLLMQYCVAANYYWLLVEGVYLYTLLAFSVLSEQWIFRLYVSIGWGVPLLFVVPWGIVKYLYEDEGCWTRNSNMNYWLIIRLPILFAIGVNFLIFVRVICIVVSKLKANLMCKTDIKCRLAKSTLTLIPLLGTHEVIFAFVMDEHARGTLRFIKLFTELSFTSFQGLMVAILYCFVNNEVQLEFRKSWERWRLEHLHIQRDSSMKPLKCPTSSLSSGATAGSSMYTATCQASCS

Regarding “H-Y[Aib]QGTFTSD[4Pal]SQ[αMeL]LDKK([γGlu-γGlu-C18 diacid])AQ[αMe4Pal]AFIE[αMe4Pal]LIEGGPSSGAPPPSGSEE-NH2 [Example 957]”, the EC50 stood at 747 nM at hGLP-1R [1]; 5.01 nM on hGLP-1R [2] (setting [5]); 4.18 nM at hGcgR (setting [5]); 25 nM at hGIPR [3]; 0.213 nM at hGIPR [4] (setting [5]); 947 nM at human GcgR.

For the compound “H-Y[Aib]QGT[αMePhe(2-F)]TSDYSI[αMeL]LDKK([AEEA-AEEA-γGlu-C20 diacid])AA[Aib]AFIEYLIETGPSSGAPPPSEG-NH2 [Example 383]”, the EC50 on hGLP-1R [1] (HEK-293 clonal cells expressing hGLP-1R, in the presence of 1% HSA, geometric mean of relative EC50) amounted to 79.1 nM; on hGLP-1R [2] (setting [5]), 0.258 nM; at hGcgR (setting [5]) it was 1.27 nM; on hGIPR [3] (HEK-293 clonal cells expressing hGIPR, in the presence of 1% HSA, geometric mean of relative EC50), 32.3 nM; at hGIPR [4] (setting [5]) it was 0.0406 nM; at human GcgR (HEK-293 clonal cells expressing hGcgR, in the presence of 1% HSA, geometric mean of relative EC50), 530 nM.

Turning to “H-Y[Aib]QGT[αMePhe(2-F)]TSD[4Pal][αMeS]I[αMeL]LD[Orn]K([γGlu-Glu-C18 diacid])AQ[Aib][Orn]FI[dE][αMeY]LSEGGPSSGEPPPSGTE-NH2 [Example 565]”, the EC50 stood at 204 nM at hGLP-1R [1]; 1.24 nM on hGLP-1R [2]; 10.3 nM at hGcgR; 21.9 nM at hGIPR [3]; 0.107 nM at hGIPR [4]; 1770 nM on human GcgR.

In the case of “H-Y[Aib]QGTFTSDFS[Orn][αMeL]LDKK([AEEA-γGlu-C18 diacid])AQ[Aib]AFIEYLLEGGPSSGAPPPGGQ-NH2 [Example 159]”, the EC50 at hGLP-1R [1] is 588 nM; on hGLP-1R [2] (setting [5]), 4.15 nM; on hGcgR (setting [5]), 6.89 nM; at hGIPR [3], 49.7 nM; at hGIPR [4] (setting [5]), 0.343 nM; at human GcgR it was 475 nM.

In the case of “Y[Aib]QGT[αMePhe(2-F)]TSD[4Pal][αMeS]I[αMeL]LD[Orn]K([γGlu-γGlu-C18 diacid])AQ[Aib][Orn]FI[dE][αMeY]LQEGGPSSGEPPPEGAEE-NH2 [Example 587]”, the EC50 on hGLP-1R [1] was found to be 31.9 nM; on hGLP-1R [2], 0.611 nM; at hGcgR it was 5.38 nM; on hGIPR [3], 3.47 nM; on hGIPR [4], 0.0635 nM; on human GcgR it was 252 nM.

For the compound “H-Y[Aib]QGT[αMePhe(2-F)]TSD[4Pal][αMeS]ILLD[Orn]K([γGlu-γGlu-C18 diacid])AQ[Aib][Orn]FI[dE]YLIEGGPSSGEPPPEGSEE-NH2 [Example 603]”, the EC50 on hGLP-1R [1] turned out to be 49.5 nM; on hGLP-1R [2], 0.688 nM; at hGcgR, 5.43 nM; at hGIPR [3], 4.99 nM; on hGIPR [4], 0.102 nM; at human GcgR it was 419 nM.

On to “H-Y[Aib]QGT[αMePhe(2-F)]TSD[4Pal][αMeS]I[αMeL]LD[Orn][Orn]([AEEA-γGlu-C18 diacid])AQ[αMe4Pal]EFI[dE][αMeY]LIEGGPSSGAPPPSGGGE-NH2 [Example 1213]”, for which the EC50 on hGLP-1R [1] is 44 nM; at hGLP-1R [2] (setting [6]), 0.423 nM; at hGcgR (setting [6]), 1.69 nM; at hGIPR [3], 0.616 nM; on hGIPR [4] (setting [6]), 0.00721 nM; on human GcgR it was 268 nM.

As for “H-Y[Aib]QGT[αMePhe(2-F)]TSD[4Pal]SILLDKK([γGlu-γGlu-C18 diacid])AQ[Aib]AFIEYLEEGGPSSGAPPPSGGGE-NH2 [Example 619]”, the EC50 worked out at 94 nM at hGLP-1R [1]; 0.992 nM at hGLP-1R [2]; 6.34 nM on hGcgR; 6.78 nM at hGIPR [3]; 0.0685 nM on hGIPR [4]; 819 nM on human GcgR.

As to “H-Y[Aib]QGTFTSDFS[Orn][αMeL]LDKK([AEEA-AEEA-γGlu-C18 diacid])AQ[Aib]AFIEYLLE[Aib]GPSSGEPPPEGS-NH2 [Example 195]”, the EC50 on hGLP-1R [1] stood at 829 nM; at hGLP-1R [2] (setting [5]) it was 6.13 nM; on hGcgR (setting [5]), 3.1 nM; on hGIPR [3] it was 28.8 nM; on hGIPR [4] (setting [5]) it was 0.145 nM; on human GcgR it was 605 nM.

On to `CC[C@H](C)[C@H](NC(=O)[C@H](Cc1ccccc1)NC(=O)[C@H](C)NC(=O)C(C)(C)NC(=O)[C@H](CCC(N)=O)NC(=O)[C@H](C)NC(=O)[C@H](CCCCNC(=O)CC[C@H](NC(=O)CC[C@H](NC(=O)CCCCCCCCCCCCCCCCC(=O)O)C(=O)O)C(=O)O)NC(=O)[C@H](CCCCN)NC(=O)[C@H](CC(=O)O)NC(=O)[C@H](CC(C)C)NC(=O)[C@](C)(CC(C)C)NC(=O)[C@@H](NC(=O)[C@H](CO)NC(=O)[C@H](Cc1ccncc1)NC(=O)[C@H](CC(=O)O)NC(=O)[C@H](CO)NC(=O)[C@@H](NC(=O)[C@](C)(Cc1ccccc1F)NC(=O)[C@@H](NC(=O)CNC(=O)[C@H](CCC(N)=O)NC(=O)C(C)(C)NC(=O)[C@@H](N)Cc1ccc(O)cc1)[C@@H](C)O)[C@@H](C)O)[C@@H](C)CC)C(=O)N[C@@H](CCC(=O)O)C(=O)N[C@@H](Cc1ccc(O)cc1)C(=O)N[C@@H](CC(C)C)C(=O)N[C@@H](CO)C(=O)N[C@@H](CCC(=O)O)C(=O)NCC(=O)NCC(=O)N1CCC[C@H]1C(=O)N[C@@H](CO)C(=O)N[C@@H](CO)C(=O)NCC(=O)N[C@@H](C)C(=O)N1CCC[C@H]1C(=O)N1CCC[C@H]1C(=O)N1CCC[C@H]1C(=O)N[C@@H](CO)C(N)=O` [Example 446] (H-Y[Aib]QGT[αMePhe(2-F)]TSD[4Pal]SI[αMeL]LDKK([γGlu-γGlu-C18 diacid])AQ[Aib]AFIEYLSEGGPSSGAPPPS-NH2), for which the EC50 at hGLP-1R [1] turned out to be 24.5 nM; at hGLP-1R [2] it was 0.696 nM; at hGcgR, 8.34 nM; at hGIPR [3] it was 3.01 nM; on hGIPR [4], 0.0351 nM; at human GcgR, 516 nM.

On to “Y[Aib]QGTFTSD[4Pal]SQ[αMeL]LD[Orn]K([dE-γGlu-C18 diacid])AQ[αMe4Pal]QFIE[αMeY]LIAGGPSSGAPPPSGSEEE-NH2 [Example 1081]”, for which the EC50 came out at 151 nM on hGLP-1R [1]; 1.29 nM at hGLP-1R [2] (setting [5]); 19.7 nM on hGcgR (setting [5]); 8.44 nM on hGIPR [3]; 0.105 nM on hGIPR [4] (setting [5]); 2130 nM on human GcgR.

As for “H-Y[Aib]QGTFTSD[4Pal]SQ[αMeL]LDKK([dE-dE-γGlu-C18 diacid])AQ[αMe4Pal]AFIEYLIE[Aib]GPSSGAPPPSGS-NH2 [Example 921]”, the EC50 stood at 261 nM at hGLP-1R [1]; 3.73 nM at hGLP-1R [2] (setting [5]); 10.4 nM on hGcgR (setting [5]); 12.4 nM at hGIPR [3]; 0.228 nM at hGIPR [4] (setting [5]); 2130 nM at human GcgR.

Regarding “Y[Aib]QGTFTSD[4Pal][αMeS]Q[αMeL]LD[Orn]K([dE-γGlu-C18 diacid])AQ[Iva]QFIQ[αMeY]LLE[Aib]GPSSGAPPPSGGGE-NH2 [Example 1139]”, the EC50 at hGLP-1R [1] amounted to 155 nM; on hGLP-1R [2] (setting [5]), 1.85 nM; at hGcgR (setting [5]) it was 5.29 nM; on hGIPR [3], 2.87 nM; on hGIPR [4] (setting [5]) it was 0.0431 nM; on human GcgR, 269 nM.

With “Y[Aib]QGTFTSD[4Pal]SK[αMeL]LDKK([AEEA-γGlu-C18 diacid])AQ[Aib]AFIEYLIA[Aib]GESSGEPPPSGE-NH2 [Example 286]”, the half-maximal effective concentration (EC50) on hGLP-1R [1] came to 925 nM; on hGLP-1R [2] (setting [5]), 3.45 nM; at hGcgR (setting [5]), 2.2 nM; at hGIPR [3], 11.5 nM; at hGIPR [4] (setting [5]), 0.0845 nM; at human GcgR it was 228 nM.

The EC50 is the concentration giving half of the maximal effect.
